# Results published in ChEMBL document CHEMBL1201862, “PubChem BioAssay data set” (2004).
#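 Dose response: 5 concentrations. Exposure: 48 h. Format: 96-well plates. Endpoint: linear interpolation; highest concentration if not reached. GI50: concentration for 50% inhibition of growth.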 The source made the active and inactive calls. Rule as the data show it: active = GI50 up to about 1.1 µM and inactive = higher.
# Tests used:
# Assay in all cases: NCI anticancer screen, dose series, 48 h
# [1] = tested on: NCI-H23
# [2] = tested on: SW-620
# [3] = tested on: K562
# [4] = tested on: HOP-92
# [5] = tested on: OVCAR-8
# [6] = tested on: M14
# [7] = tested on: CCRF-CEM
# [8] = tested on: HCT-15
# [9] = tested on: U-251
# [10] = tested on: ACHN
# [11] = tested on: HT-29
# [12] = tested on: HOP-62
# [13] = tested on: MDA-MB-231
# [14] = tested on: SK-MEL-28
# [15] = tested on: 786-0
# [16] = tested on: NCI-H226
# [17] = tested on: SNB-19
# [18] = tested on: SK-MEL-2
# [19] = tested on: UACC-257
# [20] = tested on: RPMI-8226
# [21] = tested on: NCI-H460
# [22] = tested on: MCF7
# [23] = tested on: LOX IMVI
# [24] = tested on: HL-60
# [25] = tested on: OVCAR-3
# [26] = tested on: SF-295
# [27] = tested on: PC-3
# [28] = tested on: A549
# [29] = tested on: SK-OV-3
# [30] = tested on: MOLT-4
# [31] = tested on: SNB-75
# [32] = tested on: MDA-MB-435
# [33] = tested on: SN12C
# [34] = tested on: RXF 393
# [35] = tested on: T47D
# [36] = tested on: COLO 205
# [37] = tested on: UO-31
# [38] = tested on: HCC 2998
# [39] = tested on: NCI/ADR-RES
# [40] = tested on: HCT-116
# [41] = tested on: SF-268
# [42] = tested on: IGROV-1
# [43] = tested on: OVCAR-4
# [44] = tested on: Malme-3M
# [45] = tested on: OVCAR-5
# [46] = tested on: SK-MEL-5
# [47] = tested on: SR
# [48] = tested on: NCI-H522
# [49] = tested on: UACC-62
# [50] = tested on: Hs-578T
# [51] = tested on: MDA-N
# [52] = tested on: DU-145
# [53] = tested on: KM12
# [54] = tested on: TK-10
# [55] = tested on: EKVX
# [56] = tested on: A498
# [57] = tested on: SF-539
# [58] = tested on: CAKI-1
smiles,measurement,setting,value
C=CC1(c2ccc3ccccc3c2)OCC(CC)O1 (stereo not given),GI50,[1],32.3 µM (inactive)
same,GI50,[2],46.2 µM (inactive)
same,GI50,[3],13.9 µM (inactive)
same,GI50,[4],36.7 µM (inactive)
same,GI50,[5],> 100 µM (inactive)
same,GI50,[6],61.1 µM (inactive)
same,GI50,[7],29.6 µM (inactive)
same,GI50,[8],45.6 µM
same,GI50,[9],57 µM (inactive)
same,GI50,[10],66.1 µM (inactive)
same,GI50,[11],29.6 µM (inactive)
same,GI50,[12],1.21 µM (inactive)
same,GI50,[13],0.207 µM (active)
same,GI50,[14],> 100 µM (inactive)
same,GI50,[15],85.9 µM (inactive)
same,GI50,[16],25.5 µM (inactive)
same,GI50,[17],94 µM (inactive)
same,GI50,[18],15.6 µM (inactive)
same,GI50,[19],60.4 µM (inactive)
same,GI50,[20],46.3 µM (inactive)
same,GI50,[21],48.2 µM (inactive)
same,GI50,[22],55 µM (inactive)
same,GI50,[23],21.8 µM (inactive)
same,GI50,[24],4.37 µM (inactive)
same,GI50,[25],47 µM (inactive)
same,GI50,[26],61.5 µM (inactive)
same,GI50,[27],28 µM (inactive)
same,GI50,[28],47.9 µM (inactive)
same,GI50,[29],> 100 µM (inactive)
same,GI50,[30],25.6 µM (inactive)
same,GI50,[31],30 µM (inactive)
same,GI50,[32],63.4 µM (inactive)
same,GI50,[33],36.7 µM (inactive)
same,GI50,[34],53.8 µM (inactive)
same,GI50,[35],35 µM (inactive)
same,GI50,[36],36.1 µM (inactive)
same,GI50,[37],63.5 µM (inactive)
same,GI50,[38],94.2 µM (inactive)
same,GI50,[39],> 100 µM (inactive)
same,GI50,[40],40.9 µM (inactive)
same,GI50,[41],71.6 µM (inactive)
same,GI50,[42],33.9 µM (inactive)
same,GI50,[43],55.6 µM (inactive)
same,GI50,[44],30.5 µM (inactive)
same,GI50,[45],48.9 µM (inactive)
same,GI50,[46],47 µM (inactive)
same,GI50,[47],19.8 µM (inactive)
same,GI50,[48],40.6 µM (inactive)
same,GI50,[49],13.6 µM (inactive)
same,GI50,[50],22.4 µM (inactive)
same,GI50,[51],24.8 µM (inactive)
same,GI50,[52],> 100 µM (inactive)
same,GI50,[53],44.1 µM (inactive)
same,GI50,[54],> 100 µM (inactive)
same,GI50,[55],25.1 µM (inactive)
CC(C)(CCCCC(C)(C)C1NC(=O)N1)C1NC(=O)N1,GI50,[1],> 10 µM (inactive)
same,GI50,[2],> 10 µM (inactive)
same,GI50,[56],> 10 µM (inactive)
same,GI50,[3],> 10 µM (inactive)
same,GI50,[5],> 10 µM (inactive)
same,GI50,[6],> 10 µM (inactive)
same,GI50,[7],> 10 µM (inactive)
same,GI50,[8],> 10 µM
same,GI50,[9],> 10 µM (inactive)
same,GI50,[10],> 10 µM (inactive)
same,GI50,[11],> 10 µM (inactive)
same,GI50,[12],> 10 µM (inactive)
same,GI50,[13],> 10 µM (inactive)
same,GI50,[14],> 10 µM (inactive)
same,GI50,[16],> 10 µM (inactive)
same,GI50,[17],> 10 µM (inactive)
same,GI50,[18],> 10 µM (inactive)
same,GI50,[20],> 10 µM (inactive)
same,GI50,[21],> 10 µM (inactive)
same,GI50,[57],> 10 µM (inactive)
same,GI50,[22],> 10 µM (inactive)
same,GI50,[23],> 10 µM (inactive)
same,GI50,[24],> 10 µM (inactive)
same,GI50,[26],> 10 µM (inactive)
same,GI50,[27],> 10 µM (inactive)
same,GI50,[28],> 10 µM (inactive)
same,GI50,[29],> 10 µM (inactive)
same,GI50,[30],> 10 µM (inactive)
same,GI50,[31],> 10 µM (inactive)
same,GI50,[32],> 10 µM (inactive)
same,GI50,[33],> 10 µM (inactive)
same,GI50,[34],> 10 µM (inactive)
same,GI50,[35],> 10 µM (inactive)
same,GI50,[36],> 10 µM (inactive)
same,GI50,[37],5.05 µM (inactive)
same,GI50,[38],> 10 µM (inactive)
same,GI50,[39],> 10 µM (inactive)
same,GI50,[40],> 10 µM (inactive)
same,GI50,[58],> 10 µM (inactive)
same,GI50,[41],> 10 µM (inactive)
same,GI50,[42],> 10 µM (inactive)
same,GI50,[43],> 10 µM (inactive)
same,GI50,[44],> 10 µM (inactive)
same,GI50,[45],> 10 µM (inactive)
same,GI50,[46],> 10 µM (inactive)
same,GI50,[48],> 10 µM (inactive)
same,GI50,[49],> 10 µM (inactive)
same,GI50,[50],> 10 µM (inactive)
same,GI50,[51],> 10 µM (inactive)
same,GI50,[52],> 10 µM (inactive)
same,GI50,[53],> 10 µM (inactive)
same,GI50,[54],> 10 µM (inactive)
same,GI50,[55],> 10 µM (inactive)
CC1(C)CC(=O)/C(=C/C2CCNC2=S)C(=O)N1 (stereo not given),GI50,[1],> 100 µM (inactive)
same,GI50,[2],> 100 µM (inactive)
same,GI50,[56],> 100 µM (inactive)
same,GI50,[3],> 100 µM (inactive)
same,GI50,[4],> 100 µM (inactive)
same,GI50,[5],> 100 µM (inactive)
same,GI50,[6],> 100 µM (inactive)
same,GI50,[7],> 100 µM (inactive)
same,GI50,[8],> 100 µM
same,GI50,[9],> 100 µM (inactive)
same,GI50,[10],> 100 µM (inactive)
same,GI50,[11],> 100 µM (inactive)
same,GI50,[12],> 100 µM (inactive)
same,GI50,[13],> 100 µM (inactive)
same,GI50,[14],> 100 µM (inactive)
same,GI50,[15],> 100 µM (inactive)
same,GI50,[16],> 100 µM (inactive)
same,GI50,[17],> 100 µM (inactive)
same,GI50,[18],> 100 µM (inactive)
same,GI50,[19],> 100 µM (inactive)
same,GI50,[20],> 100 µM (inactive)
same,GI50,[21],> 100 µM (inactive)
same,GI50,[57],> 100 µM (inactive)
same,GI50,[22],> 100 µM (inactive)
same,GI50,[23],> 100 µM (inactive)
same,GI50,[24],> 100 µM (inactive)
same,GI50,[25],> 100 µM (inactive)
same,GI50,[26],> 100 µM (inactive)
same,GI50,[27],> 100 µM (inactive)
same,GI50,[28],> 100 µM (inactive)
same,GI50,[29],> 100 µM (inactive)
same,GI50,[30],> 100 µM (inactive)
same,GI50,[31],> 100 µM (inactive)
same,GI50,[32],> 100 µM (inactive)
same,GI50,[33],82.4 µM (inactive)
same,GI50,[35],> 100 µM (inactive)
same,GI50,[36],> 100 µM (inactive)
same,GI50,[37],> 100 µM (inactive)
same,GI50,[38],> 100 µM (inactive)
same,GI50,[39],> 100 µM (inactive)
same,GI50,[40],> 100 µM (inactive)
same,GI50,[58],> 100 µM (inactive)
same,GI50,[41],> 100 µM (inactive)
same,GI50,[42],> 100 µM (inactive)
same,GI50,[43],> 100 µM (inactive)
same,GI50,[44],> 100 µM (inactive)
same,GI50,[45],> 100 µM (inactive)
same,GI50,[46],> 100 µM (inactive)
same,GI50,[47],> 100 µM (inactive)
same,GI50,[48],> 100 µM (inactive)
same,GI50,[49],> 100 µM (inactive)
same,GI50,[50],> 100 µM (inactive)
same,GI50,[51],> 100 µM (inactive)
same,GI50,[52],> 100 µM (inactive)
same,GI50,[53],> 100 µM (inactive)
same,GI50,[54],> 100 µM (inactive)
same,GI50,[55],> 100 µM (inactive)
